Assay results from ChEMBL document CHEMBL1143473, “Synthesis and evaluation of 18F-labeled dopamine D3 receptor ligands as potential PET imaging agents” (Bioorg Med Chem Lett, 2005).

Columns and labels:
[1] = target: T1, D(4) dopamine receptor (Homo sapiens, UniProt P21917); assay: biochemical
T1 sequence (P21917 whole entry): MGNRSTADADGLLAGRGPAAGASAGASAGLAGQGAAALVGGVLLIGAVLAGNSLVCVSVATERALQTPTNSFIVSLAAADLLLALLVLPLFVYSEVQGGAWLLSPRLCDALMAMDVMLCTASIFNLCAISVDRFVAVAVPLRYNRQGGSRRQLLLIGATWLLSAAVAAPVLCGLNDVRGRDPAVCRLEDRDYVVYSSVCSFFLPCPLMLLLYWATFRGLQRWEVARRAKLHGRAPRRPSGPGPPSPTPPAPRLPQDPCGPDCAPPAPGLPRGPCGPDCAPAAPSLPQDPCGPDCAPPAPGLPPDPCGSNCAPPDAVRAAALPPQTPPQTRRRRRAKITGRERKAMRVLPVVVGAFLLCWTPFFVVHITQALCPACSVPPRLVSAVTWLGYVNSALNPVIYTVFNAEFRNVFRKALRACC
Description: Binding affinity towards Dopamine receptor D 4.4 using CHO cell line and [3H]spiperone as radioligand

[2] = target: T2, D(2) dopamine receptor (Homo sapiens, UniProt P14416); assay: biochemical
Description: Binding affinity towards Dopamine D2S receptor using CHO cell line and [3H]spiperone as radioligand

[3] = target: D(3) dopamine receptor (Homo sapiens, UniProt P35462); assay: biochemical
Description: Binding affinity towards Dopamine receptor D3 using CHO cell line and [3H]-spiperone as radioligand

[4] = target: T2, D(2) dopamine receptor; assay: biochemical; remark: listed apart in the source
Description: Binding affinity towards Dopamine D2L receptor using CHO cell line and [3H]spiperone as radioligand

[5] = target: D(1A) dopamine receptor (Sus scrofa, UniProt P50130); assay: Binding affinity towards Dopamine receptor D1 using porcine striatal membrane and [3H]-SCH- 23390 as radioligand; set-up: species or system Striatum
[6] = Binding affinity towards 5-HT2 receptor using porcine cortical membrane and [3H]ketanserin as radioligand; set-up: species or system Sus scrofa

T2 sequence (P14416 whole entry): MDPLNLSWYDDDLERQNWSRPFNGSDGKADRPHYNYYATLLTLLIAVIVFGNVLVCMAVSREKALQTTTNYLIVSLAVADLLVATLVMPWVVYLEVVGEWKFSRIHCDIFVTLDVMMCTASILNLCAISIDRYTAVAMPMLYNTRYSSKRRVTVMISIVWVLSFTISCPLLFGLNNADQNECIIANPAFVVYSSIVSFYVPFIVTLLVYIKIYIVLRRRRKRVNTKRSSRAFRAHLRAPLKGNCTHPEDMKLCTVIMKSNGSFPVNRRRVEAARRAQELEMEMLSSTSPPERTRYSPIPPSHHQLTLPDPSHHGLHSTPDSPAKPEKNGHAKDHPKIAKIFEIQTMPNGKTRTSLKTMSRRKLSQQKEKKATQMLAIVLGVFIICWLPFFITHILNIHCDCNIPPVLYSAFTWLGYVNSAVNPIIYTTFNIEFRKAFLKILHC
Sequence of D(1A) dopamine receptor (P50130 whole entry): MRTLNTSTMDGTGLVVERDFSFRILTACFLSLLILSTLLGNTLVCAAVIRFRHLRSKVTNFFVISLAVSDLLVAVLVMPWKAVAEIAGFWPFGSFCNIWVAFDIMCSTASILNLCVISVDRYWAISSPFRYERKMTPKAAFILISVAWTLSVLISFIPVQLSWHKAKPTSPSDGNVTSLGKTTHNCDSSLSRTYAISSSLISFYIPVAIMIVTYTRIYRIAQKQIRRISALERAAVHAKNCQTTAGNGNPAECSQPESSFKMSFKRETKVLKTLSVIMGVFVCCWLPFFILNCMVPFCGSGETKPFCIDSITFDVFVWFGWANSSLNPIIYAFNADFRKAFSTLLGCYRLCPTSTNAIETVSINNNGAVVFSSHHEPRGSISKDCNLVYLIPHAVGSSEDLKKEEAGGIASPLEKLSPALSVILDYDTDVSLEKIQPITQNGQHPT
Sequence of D(3) dopamine receptor (P35462 whole entry): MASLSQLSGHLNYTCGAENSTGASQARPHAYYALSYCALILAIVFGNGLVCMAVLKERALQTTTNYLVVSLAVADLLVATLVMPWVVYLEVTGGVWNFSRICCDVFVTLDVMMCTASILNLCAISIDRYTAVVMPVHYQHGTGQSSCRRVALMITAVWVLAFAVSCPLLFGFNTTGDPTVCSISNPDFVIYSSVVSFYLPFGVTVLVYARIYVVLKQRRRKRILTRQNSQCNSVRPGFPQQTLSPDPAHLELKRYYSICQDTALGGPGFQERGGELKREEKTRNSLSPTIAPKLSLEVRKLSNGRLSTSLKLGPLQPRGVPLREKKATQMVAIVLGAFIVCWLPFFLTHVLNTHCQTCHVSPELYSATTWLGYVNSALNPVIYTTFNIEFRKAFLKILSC

SMILES	Ki [1] [nM]	Ki [2] [nM]	Ki [3] [nM]	Ki [4] [nM]	Ki [5] [nM]	Ki [6] [nM]
O=C(NCCCCN1CCN(c2cccc(Cl)c2Cl)CC1)c1cccc(F)n1	97	57	9	44	910	240
COc1ccccc1N1CCN(CCCCNC(=O)c2ccc(F)cc2)CC1						2300
O=C(NCCCCN1CCN(c2cccc(Cl)c2Cl)CC1)c1ccc(F)nc1	100	29	1.1	21	1300	84
COc1ccccc1N1CCN(CCCCNC(=O)c2ccc(F)nc2)CC1	130	240	14	160	6300	3700
O=C(NCCCCN1CCN(c2cccc(Cl)c2Cl)CC1)c1cc2ccccc2s1						3000
O=S(=O)(NCCCCN1CCN(c2cccc(Cl)c2Cl)CC1)c1ccc(F)cc1	17	49	16	39	1800	830
COc1ccccc1N1CCN(CCCCNC(=O)c2cccc(F)n2)CC1	76	400	86	260	4100	3200
O=C(NCCCCN1CCN(c2cccc(Cl)c2Cl)CC1)c1ccc(F)cc1	44	18	0.53		920	230
COc1ccccc1N1CCN(CCCCNS(=O)(=O)c2ccc(F)cc2)CC1	9.9	120	210	72	3500	
